Results published in PubChem BioAssay (NCI).
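A five-concentration, 48-hour dose response in 96-well plates underlies each endpoint, interpolated linearly between surrounding concentrations. Here, GI50 denotes the concentration required for 50% inhibition of growth. Definition used: TGI = concentration required for complete inhibition of growth.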

What was measured:
Experiment in all cases: NCI tumour cell line growth inhibition, 48 h
[1] = tested on: SF-295 CNS
[2] = tested on: UACC-257 melanoma
[3] = tested on: PC-3 prostate
[4] = tested on: SF-268 CNS
[5] = tested on: HCT-15 colon
[6] = tested on: SK-OV-3 ovarian
[7] = tested on: T-47D breast
[8] = tested on: NCI-H226 lung
[9] = tested on: HOP-62 NSCLC
[10] = tested on: HL-60(TB) leukemia
[11] = tested on: SN12C renal
[12] = tested on: A498 renal
[13] = tested on: SNB-19 CNS
[14] = tested on: SF-539 CNS
[15] = tested on: KM12 colon
[16] = tested on: UO-31 renal
[17] = tested on: OVCAR-3 ovarian
[18] = tested on: OVCAR-8 ovarian
[19] = tested on: SW-620 colon
[20] = tested on: TK-10 renal
[21] = tested on: CCRF-CEM leukemia
[22] = tested on: NCI-H522 lung
[23] = tested on: NCI/ADR-RES ovarian
[24] = tested on: HT29 colon
[25] = tested on: HCC-2998 colon
[26] = tested on: ACHN renal
[27] = tested on: RXF 393 renal
[28] = tested on: 786-0 renal
[29] = tested on: HOP-92 NSCLC
[30] = tested on: NCI-H23 lung
[31] = tested on: CAKI-1 renal
[32] = tested on: U251 CNS
[33] = tested on: NCI-H460 lung
[34] = tested on: DU-145 prostate
[35] = tested on: MDA-MB-435
[36] = tested on: SK-MEL-2 melanoma
[37] = tested on: A549 NSCLC
[38] = tested on: SK-MEL-28 melanoma
[39] = tested on: COLO 205 colon
[40] = tested on: OVCAR-4 ovarian
[41] = tested on: EKVX NSCLC
[42] = tested on: BT-549 breast
[43] = tested on: UACC-62 melanoma
[44] = tested on: RPMI-8226 leukemia
[45] = tested on: MDA-MB-468 breast
[46] = tested on: SNB-75 CNS
[47] = tested on: SR leukemia
[48] = tested on: MCF7 breast
[49] = tested on: MDA-MB-231 breast
[50] = tested on: HCT-116 colon
[51] = tested on: M14 melanoma
[52] = tested on: IGROV1 ovarian
[53] = tested on: HS 578T breast
[54] = tested on: LOX IMVI melanoma
[55] = tested on: K-562 leukemia
[56] = tested on: OVCAR-5 ovarian
[57] = tested on: SK-MEL-5 melanoma
[58] = tested on: MOLT-4 leukemia
[59] = tested on: MALME-3M melanoma

COc1ccc(OC)c(-c2cc(-c3c[nH]c4ccccc34)nc(N)c2C#N)c1
GI50 [1]: 3.43 µM
TGI [1]: 13 µM
GI50 [2]: 9.47 µM
TGI [2]: 21.5 µM
GI50 [3]: 1.93 µM
TGI [3]: 15.5 µM
GI50 [4]: 3.63 µM
TGI [4]: 19 µM
GI50 [5]: 0.903 µM
TGI [5]: 13.4 µM
GI50 [6]: 3.63 µM
TGI [6]: 18 µM
GI50 [7]: 2.18 µM
TGI [7]: 12.6 µM
GI50 [8]: 5.81 µM
TGI [8]: 20.5 µM
GI50 [9]: 2.88 µM
TGI [9]: 16.2 µM
GI50 [10]: 2.42 µM
TGI [10]: 25.4 µM
GI50 [11]: 5.06 µM
TGI [11]: 17.7 µM
GI50 [12]: 8.86 µM
TGI [12]: 21.9 µM
GI50 [13]: 5.47 µM
TGI [13]: 19.3 µM
GI50 [14]: 2.9 µM
TGI [14]: 11.7 µM
GI50 [15]: 2.71 µM
TGI [15]: 13.6 µM
GI50 [16]: 3.9 µM
TGI [16]: 18.4 µM
GI50 [17]: 2.94 µM
TGI [17]: 14.2 µM
GI50 [18]: 4.94 µM
TGI [18]: 18.2 µM
GI50 [19]: 2.9 µM
TGI [19]: 15.6 µM
GI50 [20]: 11.1 µM
TGI [20]: 33.7 µM
GI50 [21]: 2.4 µM
TGI [21]: 28.8 µM
GI50 [22]: 0.736 µM
TGI [22]: 7.28 µM
GI50 [23]: 1.22 µM
TGI [23]: 5.02 µM
GI50 [24]: 2.74 µM
TGI [24]: 12.3 µM
GI50 [25]: 2.98 µM
TGI [25]: 13.9 µM
GI50 [26]: 4.92 µM
TGI [26]: 22.7 µM
GI50 [27]: 1.77 µM
TGI [27]: 10.4 µM
GI50 [28]: 2.61 µM
TGI [28]: 9.13 µM
GI50 [29]: 1.3 µM
TGI [29]: 4.38 µM
GI50 [30]: 2.82 µM
TGI [30]: 15.2 µM
GI50 [31]: 1.51 µM
TGI [31]: 20.6 µM
GI50 [32]: 3.2 µM
TGI [32]: 13.8 µM
GI50 [33]: 1.58 µM
TGI [33]: 13.2 µM
GI50 [34]: 8.2 µM
TGI [34]: 27.5 µM
GI50 [35]: 0.39 µM
TGI [35]: 1.86 µM
GI50 [36]: 2.39 µM
TGI [36]: 6.58 µM
GI50 [37]: 3.74 µM
TGI [37]: 27.5 µM
GI50 [38]: 3.46 µM
TGI [38]: 17.8 µM
GI50 [39]: 2.81 µM
TGI [39]: 10.7 µM
GI50 [40]: 5.42 µM
TGI [40]: 25.3 µM
GI50 [41]: 1.57 µM
TGI [41]: 16.4 µM
GI50 [42]: 1.96 µM
TGI [42]: 12.3 µM
GI50 [43]: 2.67 µM
TGI [43]: 13.5 µM
GI50 [44]: 1.95 µM
TGI [44]: > 100 µM
GI50 [45]: 0.0659 µM
TGI [45]: 0.369 µM
GI50 [46]: 1.3 µM
TGI [46]: 5.14 µM
GI50 [47]: 0.539 µM
TGI [47]: 21.2 µM
GI50 [48]: 0.135 µM
TGI [48]: 12.5 µM
GI50 [49]: 2.06 µM
TGI [49]: 12.6 µM
GI50 [50]: 2.42 µM
TGI [50]: 13.2 µM
GI50 [51]: 1.6 µM
TGI [51]: 11.6 µM
GI50 [52]: 5.59 µM
TGI [52]: 23.1 µM
GI50 [53]: 2.17 µM
TGI [53]: 8.13 µM
GI50 [54]: 2.95 µM
TGI [54]: 12.8 µM
GI50 [55]: 0.881 µM
TGI [55]: 82.3 µM
GI50 [56]: 5.94 µM
TGI [56]: 21.8 µM
GI50 [57]: 0.804 µM
TGI [57]: 4.18 µM
GI50 [58]: 3.84 µM
TGI [58]: 27 µM
GI50 [59]: 3.25 µM
TGI [59]: 16.7 µM
